In patent US20120108666A1, “Treatment of Cell Proliferative Disorders” (priority 2006, published 2012):

What was measured:
HL-60 cells = assay: XTT viability of HL-60 cells after 3 days, with and without piceatannol; assay type: cell-based, human; settings: for viability of HL-60 cells, XTT method: 3 days
From the text: Secondly, the effect of compounds of the invention may be compared to the natural inhibitor of Syk, piceatannol.

[1] = test system: Syk-containing Jurkat cells; assay: Jurkat cell survival after seven days (FIG. 4); assay type: cell-based; settings: 50 μg/ml
Experimental: FIG. 4 illustrates the effect of AV 61S and AV 74S on Jurkat cell survival after a seven day period;
(§1) The jurkat E6.1 line is a Syk-deficient line; in fact, AV 61S after 7 days has no effect on this cell line (i.e., neither apoptosis nor inhibition, see […]). […] The viability study has been performed after 24 and 48 hours of incubation, each time for 3 evaluations; within 1, 3 and 6 hours.

[2] = test system: jurkat E6.1 line (Syk-deficient); assay: E6.1 Jurkat cell survival after seven days (FIG. 3); assay type: cell-based; settings: after 7 days
Experimental: as §1

E6.1 Jurkat cells = assay: Viability of E6.1 Jurkat cells after 24 and 48 hours (FIGS. 18, 19); assay type: cell-based; settings: 24 and 48 hours of incubation
Experimental: FIG. 18 illustrates, in comparison with cyclosporin-treated Jurkat cells, the viability of E6.1 Jurkat cells treated with differing concentrations of AV 61S or AV 74S after 24 hours; and
FIG. 19 illustrates, in comparison with cyclosporin-treated Jurkat cells, the viability of E6.1 Jurkat cells treated with differing concentrations of AV 61S or AV 74S after 48 hours.
as §1

PHA-activated PBMCs = assay: Inhibition of PHA-activated PBMCs (lymphocyte proliferation); assay type: cell-based, human; settings: varying concentrations
Experimental: as §1
FIGS. 1 and 2 show the effect of diluent on compounds of the invention.

Structure (SMILES)	viability of HL-60 cells, XTT method (HL-60 cells; 50 μg/ml with Pic 10 μM)	viability of HL-60 cells, XTT method (HL-60 cells; 50 μg/ml with Pic 30 μM)	viability of HL-60 cells, XTT method (HL-60 cells; 50 μg/ml, no piceatannol)	viability of HL-60 cells, XTT method (HL-60 cells; 100 μg/ml with Pic 10 μM)	viability of HL-60 cells, XTT method (HL-60 cells; 100 μg/ml with Pic 30 μM)	viability of HL-60 cells, XTT method (HL-60 cells; 100 μg/ml, no piceatannol)	killing of Syk-containing Jurkat cells [1]	effect on Syk-deficient jurkat E6.1 line (apoptosis, inhibition) [2]	killing of E6.1 Jurkat cells (viability study) (E6.1 Jurkat cells)	inhibitory effect on PHA-activated PBMCs (PHA-activated PBMCs; DMSO carrier)	inhibitory effect on PHA-activated PBMCs (PHA-activated PBMCs; PBS carrier)	blocking of the inhibitory effect of AV 74S by piceatannol (HL-60 cells; AV 74S at 100 μg/ml, HL-60)
CC(CO)OCC(C)OCC(C)OCC(C)OCC(C)OCC(C)OCC(C)OC[C@H](Cc1ccccc1)NC(=O)CCc1ccc(O)cc1 (stereo partly drawn) [AV 61S]	97 % of control	83 % of control	81 % of control	59 % of control	23 % of control	36 % of control	~100%	no effect	do not kill them	inhibitory effect	lesser inhibitory effect	–
Oc1cc(O)cc(/C=C/c2ccc(O)c(O)c2)c1 [piceatannol, reference compound]	–	–	–	–	–	–	–	–	–	–	–	at least partially blocks the inhibitory effect of AV 74S
